ChEMBL document CHEMBL1201862, “PubChem BioAssay data set” (2004)
The source made the active and inactive calls. For most assays here, no stated cut-off is given here; in the data, actives have a measured EC50 and inactives only a lower limit.

Assays:
H9c2 = test: cells; format: functional, cell-based; conditions: Rattus norvegicus, H9c2, Myocardium;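 further: confirmatory concentration-response retest of ultra-high-throughput screening hits for modulation of myocardial damage; cell death induced by hydrogen peroxide oxidative stress; compound pretreatment for 60 min then peroxide exposure for 2 h; potency is for protecting the cells against peroxide damage rather than for killing them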
[1] = biological target: T1, Corticotropin-releasing factor receptor 2/Corticotropin-releasing factor-binding protein (Homo sapiens, UniProt P24387+Q13324); test: Dose Response confirmation of uHTS hits for small molecule antagonists of the CRF-binding protein and CRF-R2 receptor complex.; format: functional; conditions: read-out: IC50_Mean
T1 sequence (Q13324 whole entry): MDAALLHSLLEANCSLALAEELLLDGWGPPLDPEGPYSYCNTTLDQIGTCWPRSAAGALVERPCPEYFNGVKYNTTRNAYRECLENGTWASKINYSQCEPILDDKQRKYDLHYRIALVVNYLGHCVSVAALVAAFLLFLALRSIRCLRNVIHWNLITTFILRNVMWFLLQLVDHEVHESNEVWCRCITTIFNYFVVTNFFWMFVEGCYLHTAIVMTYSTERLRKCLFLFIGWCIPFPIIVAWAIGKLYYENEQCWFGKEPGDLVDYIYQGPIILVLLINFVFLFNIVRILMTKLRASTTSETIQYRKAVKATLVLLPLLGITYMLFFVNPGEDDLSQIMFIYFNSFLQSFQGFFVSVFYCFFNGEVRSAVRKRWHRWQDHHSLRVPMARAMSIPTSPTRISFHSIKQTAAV
T1 sequence (P24387 whole entry): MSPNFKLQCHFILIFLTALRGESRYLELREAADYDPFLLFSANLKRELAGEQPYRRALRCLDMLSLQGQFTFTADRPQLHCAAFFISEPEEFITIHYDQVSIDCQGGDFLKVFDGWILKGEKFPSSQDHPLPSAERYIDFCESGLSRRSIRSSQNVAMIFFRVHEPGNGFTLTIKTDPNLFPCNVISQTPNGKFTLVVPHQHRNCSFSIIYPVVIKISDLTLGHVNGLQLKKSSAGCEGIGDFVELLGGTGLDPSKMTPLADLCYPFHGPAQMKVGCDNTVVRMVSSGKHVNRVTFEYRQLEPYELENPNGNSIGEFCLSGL

[2] = biological target: T1, Corticotropin-releasing factor receptor 2/Corticotropin-releasing factor-binding protein; test: activators of CRF receptor 2 with binding protein – uHTS hits, confirmation (AID 602473); format: functional; conditions: read-out: EC50_Mean
[3] = biological target: T2, Zinc finger protein mex-5 (Caenorhabditis elegans, UniProt Q9XUB2); test: MEX-5/TCR-2 RNA interaction inhibitors, dose response, biochemical, C. elegans, fluorescence polarization (AID 1960)
T2 sequence (Q9XUB2 whole entry): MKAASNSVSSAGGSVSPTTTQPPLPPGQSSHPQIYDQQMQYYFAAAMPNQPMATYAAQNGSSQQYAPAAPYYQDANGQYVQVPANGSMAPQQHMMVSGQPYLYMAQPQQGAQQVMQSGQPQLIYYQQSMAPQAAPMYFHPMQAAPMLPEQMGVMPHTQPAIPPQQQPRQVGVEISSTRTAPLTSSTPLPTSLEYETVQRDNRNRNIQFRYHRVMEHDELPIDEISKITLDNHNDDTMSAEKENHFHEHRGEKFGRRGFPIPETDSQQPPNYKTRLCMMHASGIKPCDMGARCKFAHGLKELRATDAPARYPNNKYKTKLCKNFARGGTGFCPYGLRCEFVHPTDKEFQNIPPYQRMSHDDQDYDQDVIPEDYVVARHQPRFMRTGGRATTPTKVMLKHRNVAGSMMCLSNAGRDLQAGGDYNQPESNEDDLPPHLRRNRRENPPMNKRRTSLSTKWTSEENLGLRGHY

[4] = biological target: T3, RNA-binding protein pos-1 (Caenorhabditis elegans, UniProt G5EF15); test: inhibitors of POS-1/mex-3 RNA binding, dose response, biochemical, fluorescence polarization (AID 1964);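 further: purified POS-1 fused to maltose binding protein made in E. coli; potency of compounds blocking POS-1 binding to fluorescent RNA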
T3 sequence (G5EF15 whole entry): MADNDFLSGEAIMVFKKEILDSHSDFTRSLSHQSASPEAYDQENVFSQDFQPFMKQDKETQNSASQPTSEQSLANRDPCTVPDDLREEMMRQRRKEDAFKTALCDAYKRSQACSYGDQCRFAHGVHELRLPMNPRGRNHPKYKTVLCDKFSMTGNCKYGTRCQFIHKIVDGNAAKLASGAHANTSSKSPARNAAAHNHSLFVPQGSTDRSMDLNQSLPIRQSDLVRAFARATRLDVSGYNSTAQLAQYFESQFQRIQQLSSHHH

[5] = tested on: Streptococcus sp. 'group A'; test: growth inhibition of control SK(-) GAS strain, dose response, counter-screen for streptokinase expression inhibitor project, luminescence, kanamycin, BacTiterGlo, confirmation (AID 1900); format: functional, organism-based
Streptococcus = test: Group A Streptococcus viability loss, dose response, counter-screen for streptokinase expression inhibitor project, luminescence, BacTiterGlo (AID 1915); format: functional, organism-based;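 further: potency for reduction of bacterial viability or growth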
Streptokinase A = biological target: T4, Streptokinase A (Streptococcus pyogenes serotype M1, UniProt P10520); test: S. pyogenes streptokinase expression inhibitors, potency, dose response, plasminogen activation absorbance, OD405 (AID 1914); format: functional, Streptococcus pyogenes M1 GAS;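 further: secreted streptokinase activity via plasminogen activation per viability signal from cell pellet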
T4 sequence (P10520 whole entry): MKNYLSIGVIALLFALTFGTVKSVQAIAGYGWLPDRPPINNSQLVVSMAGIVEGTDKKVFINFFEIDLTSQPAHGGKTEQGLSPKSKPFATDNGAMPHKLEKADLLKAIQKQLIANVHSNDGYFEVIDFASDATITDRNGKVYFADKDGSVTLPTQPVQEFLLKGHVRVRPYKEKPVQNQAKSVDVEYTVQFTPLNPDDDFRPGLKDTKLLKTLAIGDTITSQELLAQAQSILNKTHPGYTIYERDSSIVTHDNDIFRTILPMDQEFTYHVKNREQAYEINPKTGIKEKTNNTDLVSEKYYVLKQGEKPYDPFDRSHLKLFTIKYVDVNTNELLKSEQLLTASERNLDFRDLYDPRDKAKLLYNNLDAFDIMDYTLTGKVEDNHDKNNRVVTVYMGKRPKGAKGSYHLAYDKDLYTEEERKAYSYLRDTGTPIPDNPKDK

[6] = C. albicans growth with fluconazole, confirmation, fluorescence, retest (AID 2467); format: functional, cell-based
[7] = NIH-3T3 fibroblast cytotoxicity, dose response, cytotoxicity control, cell-based, fluorescence, Alamar Blue, secondary assay (AID 2327); format: functional;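 further: NIH-3T3 mouse fibroblasts cultured with fluconazole at 8 µg/mL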
[8] = inhibitors of intracellular T. cruzi replication, confirmation, NIH3T3 host cells, beta-gal luminescence (AID 2044); format: functional, cell-based;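 further: intracellular parasites grown in NIH/3T3 mouse fibroblasts as host cells; luminescent beta-galactosidase reporter signal from transgenic T. cruzi replicating inside host cells; inhibitors lower the luminescence signal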
[9] = cytotoxicity toward NIH3T3 fibroblasts, dose response, counter-screen, cell-based, ATP luminescence, mouse fibroblasts (AID 2010); format: functional;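 further: cells exposed to compound for about 90 hours before reading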

N#Cc1cnn2cc(-c3ncc(C(F)(F)F)cc3Cl)cnc12
IC50 (H9c2): > 79 µM (inactive)

Cc1cc2ccccc2c(O)n1
IC50 (H9c2): 23.5 µM (active)

O=C(Nc1ccc(N2CCCCCC2)cc1)c1ccccc1Cl
IC50 [1]: > 47.1 µM (inactive)
EC50 [2]: > 53 µM (inactive)

N#CCC(N)=C(C#N)C#N
EC50 [3]: 169 µM (active)
EC50 [4]: 54.9 µM (active)

Cc1nc(SCC(=O)NCc2ccc(F)cc2)c2c(=O)n(C)c(=O)n(C)c2n1
IC50 (H9c2): > 79 µM (inactive)

COc1ccc(-c2cc3ccc(OCC(N)=O)cc3oc2=O)cc1OC
EC50 [3]: > 300 µM (not active)
EC50 [4]: > 300 µM (not active)

CCn1c(=O)cc(OCC(=O)Nc2ccccc2C#N)c2ccccc21
IC50 (H9c2): 18.1 µM (active)

Cn1c(N)c(C(=O)COC(=O)/C=C/c2ccc(OC(F)F)cc2)c(=O)n(C)c1=O
EC50 [5]: 3.34 µM (active)
EC50 (Streptococcus): 13.4 µM (active)
EC50 (Streptokinase A): > 150 µM (not active)

O=C(O)c1nn(CCOc2ccc(Br)cc2)c(=O)c2ccccc12
IC50 (H9c2): > 79 µM (inactive)

O=S(=O)(c1cccc(-c2csc(-c3cccnc3)n2)c1)N1CCOCC1
EC50 [3]: > 300 µM (not active)
EC50 [4]: > 300 µM (not active)

CCOC(=O)c1cc(C(=O)OCC)cc(-n2c(C)cc(C(=O)CN3CCOCC3)c2C)c1
EC50 [3]: > 300 µM (not active)
EC50 [4]: > 300 µM (not active)

CN1/C(=C/C=C(C#N)C#N)C(C)(C)c2ccccc21
EC50 [3]: > 300 µM (inconclusive)
EC50 [4]: 248 µM (active)

CC(C(=O)c1ccccc1)[n+]1cccc(Br)c1 (configuration not stated)
EC50 [6]: > 38 µM (not active)
EC50 [7]: > 150 µM (inactive)

N#Cc1ccccc1S(=O)(=O)N1CCN(c2nc(-c3cccnc3)nc3ccccc23)CC1
IC50 (H9c2): 27.7 µM (active)

COc1ccc(N2C(=O)CC(c3ccc([N+](=O)[O-])cc3)C2=O)cc1 (configuration not stated)
IC50 [1]: > 47.1 µM (inactive)
EC50 [2]: > 53 µM (inactive)

Cc1cc(N)n(-c2nc(-c3cccnc3)nc3ccccc23)n1
IC50 (H9c2): 11.6 µM (active)

COc1cc(C(=O)NNC(=S)NC(=O)c2ccc(F)cc2)cc(OC)c1OC
EC50 [8]: 791 nM (active)
EC50 [5]: 3.25 µM (active)
EC50 [9]: 14.9 µM (active)
EC50 (Streptococcus): 15.5 µM (active)
EC50 (Streptokinase A): > 150 µM (not active)

O=C(CSc1ccccc1)N(c1ccc(Br)cc1)c1nccs1
IC50 [1]: > 47.1 µM (inactive)
EC50 [2]: > 53 µM (inactive)

CNC(=O)c1c(NC(=O)c2ccc(S(=O)(=O)N3CCCCC3C)cc2)sc2c1CCN(C)C2 (configuration not stated)
EC50 [3]: > 300 µM (not active)
EC50 [4]: > 300 µM (not active)

Cc1ccc(N2C(=O)C3CC(c4ccccc4)=C4C5C=CC(C6C(=O)N(c7ccc(C)cc7)C(=O)C56)C4C3C2=O)cc1 (configuration not stated)
EC50 [5]: 1.41 µM (active)
EC50 (Streptococcus): 30.9 µM (active)
EC50 (Streptokinase A): > 150 µM (not active)

COc1cc(NC(=O)CSc2nc3ncnc(N)c3[nH]2)c(C(=O)O)cc1OC
EC50 [3]: 30.3 µM (active)
EC50 [4]: 29.2 µM (active)

CC1C2=C(O)CC(C)(C)CC2=NC2=C1C(=O)CC(C)(C)C2 (configuration not stated)
EC50 [2]: > 53 µM (inactive)

N#CC1=C(N)OC2=C(C(=O)CCC2)C1c1ccccc1 (configuration not stated)
EC50 [3]: > 300 µM (not active)
EC50 [4]: > 300 µM (not active)

O=c1c2ccccc2c(-c2ccccc2)nn1Cc1c(Cl)cccc1Cl
EC50 [5]: 7.76 µM (active)
EC50 (Streptococcus): > 150 µM (not active)
EC50 (Streptokinase A): 17 µM (active)

O=C(NCC1CCCO1)C(c1ccc(F)cc1)N(Cc1ccc(F)cc1)C(=O)Cn1nnc(-c2cccs2)n1 (configuration not stated)
EC50 [6]: > 38 µM (not active)
EC50 [7]: > 160 µM (inactive)

COC(=O)c1cc(C)sc1NC(=O)c1cccnc1
EC50 [6]: > 38 µM (not active)
EC50 [7]: 62.4 µM (active)

CC1CCCC(C)N1C(=O)CSc1nc(O)c2ccccc2n1 (configuration not stated)
IC50 (H9c2): > 79 µM (inactive)

COC(=O)c1ccc(N2CCN(C)CC2)c(NC(=O)COc2ccc(C)cc2)c1
EC50 [5]: > 150 µM (not active)
EC50 (Streptococcus): > 150 µM (not active)
EC50 (Streptokinase A): > 150 µM (not active)

CC(C)COc1nc2ccccc2c(=O)n1OCC(=O)O
IC50 (H9c2): > 79 µM (inactive)

COc1ccc(OC)c(N(CC(=O)Nc2cccnc2)S(=O)(=O)c2ccc(OC)c(OC)c2)c1
IC50 (H9c2): 12 µM (active)

Oc1nc(Nc2ccc(F)cc2)sc1/C=C1\C=Nc2ccccc21
EC50 [5]: 7.02 µM (active)
EC50 (Streptococcus): 18.4 µM (active)
EC50 (Streptokinase A): > 150 µM (not active)

CCn1c(=O)n(CC(=O)N2CCN(c3ccccc3F)CC2)c(=O)c2ccccc21
EC50 [6]: > 38 µM (not active)
EC50 [7]: > 160 µM (inactive)

CCSc1nc2ccccc2n1CC(=O)N1CCCCC1
IC50 [1]: > 47.1 µM (inactive)
EC50 [2]: > 53 µM (inactive)

COc1ccc(C(=O)NNC(=O)CCc2nc(O)c3ccccc3n2)cc1
IC50 (H9c2): 26 µM (active)

COc1ccccc1N1CCN(Cc2c(F)cccc2Cl)CC1
IC50 [1]: > 47.1 µM (inactive)
EC50 [2]: > 53 µM (inactive)

N#CCCN(C(=O)COC(=O)CCc1nc(O)c2ccccc2n1)c1ccccc1F
IC50 (H9c2): 13 µM (active)

CCOc1ccc(/C=C(\C#N)C(=O)NC2CC2)c(OCC)c1
IC50 [1]: > 47.1 µM (inactive)
EC50 [2]: > 53 µM (inactive)

COc1cc(OC)cc(C(=O)Nc2ccc(S(=O)(=O)Nc3cnc4ccccc4n3)cc2)c1
IC50 [1]: > 47.1 µM (inactive)
EC50 [2]: > 53 µM (inactive)

O=[N+]([O-])c1cccc(/C=N/NC2=NCCCCC2)c1
IC50 [1]: > 47.1 µM (inactive)
EC50 [2]: > 53 µM (inactive)

COc1cc(/C=N/NC(=O)c2ccccc2)ccc1OS(=O)(=O)c1ccccc1
IC50 (H9c2): > 79 µM (inactive)

O=S(=O)(/N=C(\c1ccc(F)cc1)N1CCOCC1)c1ccccc1
EC50 [2]: > 53 µM (inactive)

CCOC(=O)C1=c2/c(=C/c3ccncc3)c(N)c(C(=O)OC)n2C(=O)C(c2ccncc2)S1 (configuration not stated)
IC50 (H9c2): > 79 µM (inactive)

CCc1ccc(/C=N/n2c(S)nnc2C2CCCCC2)cc1
EC50 [5]: 11.1 µM (active)
EC50 (Streptococcus): 15.1 µM (active)
EC50 (Streptokinase A): > 150 µM (not active)

C/C(=N/Nc1nc(-c2ccccc2F)nc2ccccc12)c1ccccc1O
EC50 [5]: 10.2 µM (active)
EC50 (Streptococcus): > 150 µM (not active)
EC50 (Streptokinase A): > 150 µM (not active)
